Results on two molecules are retold here after patent USRE49556E1, “Compounds and compositions as protein kinase inhibitors” (Array BioPharma Inc., priority 2009, dated 2023).

For one data set, the system named is SW620 cells. As to the kind of experiment: SW620 cell viability assay (Cell Titer Glo). The data set is classed as cell-based. Particulars: 9 serial dilutions between 10 and 0.002 μM, without MEK inhibitor. Here is the method: The present invention also includes combinations of the BRaf inhibitors disclosed in this invention with other agents. In particular, the present invention provides for combinations with MEK1/2 inhibitors. FIG. 1 illustrates that the addition of a MEK small molecule inhibitor can reverse the induced ERK signaling, cell growth and transformation caused by a Raf small molecule inhibitor.
SW620 cells were seeded in 1640 RPMI+10% FBS at a density of 1500 cells per 96-well in black walled, clear bottom tissue culture treated plates. Test compounds were serially diluted in DMSO then added to the cells (final DMSO concentration of 0.1%) and incubated at 37° C. and 5% CO2 for 4 days. To measure cell viability, cell plates were brought to room temperature, culture media was removed, and 200 µl of Cell Titer-Glo reagent (Promega, kit components mixed as per the manufacturer's protocol then diluted 1:2 with growth media) was added to each well. Plates were shaken for 5 minutes, then incubated at room temperature for 5 minutes, and the luminescence was measured (Trilux, Perkin Elmer).
A general note: In ATP-based viability assays light output follows the ATP content of the culture.

For another data set, the system named is A375 cells. As to the kind of experiment: A375 Cellular Proliferation Assay (A375 CP). Particulars: A375-luc cells, 2 days. The data set is classed as cell-based. The protocol:
A375-luc cells engineered to express luciferase are plated to 384-well white clear bottom plates as 1,500 cells/50 μl/well in DMEM containing 10% FBS. Compounds of the invention dissolved in 100% DMSO at appropriate concentrations are transferred to the cells by a robotic Pin Tool (100 nl). The cells are incubated for 2 days at […], then 25 μl of BrightGlo™ is added to each well and the plates are read by luminescence. The concentration of each compound for 50% inhibition (IC50) was calculated by non-linear regression using XL Fit data analysis software.

Data set [1] is described as follows: Liver microsomal clearance assay, human. The settings on record: extraction ratio, human liver microsomes, 1 μM compound. The data set is classed as in vitro ADME. The protocol: (§1) Liver Microsomal Clearance Assay
(§2) The in vitro microsomal clearance assay is designed to assess potential risks associated with hepatic metabolic stability of compounds. The test compound (1 μM) was incubated with liver microsomes (0.5 mg/mL) from different species (mouse, rat, monkey, dog and human) and NADPH (1 mM) in 100 mM potassium phosphate buffer at 37° C. At specific reaction time points (0, 5, 10 and 30 minutes), reaction aliquots were removed and reactions were terminated by addition of ice cold acetonitrile containing mass spectrometry internal standard. The samples were centrifuged and the supernatants were analyzed by LC-MS/MS. In vitro metabolic half-life (t1/2, min) and intrinsic clearance (CLint, μL/min/mg) are based on the rate and extent of metabolism of the test compound as determined by the disappearance of the parent compound from the reaction mixture. These values may be scaled to predict hepatic metabolic clearance rate (CLh, mL/min/kg) and extraction ratio (ER, expressed as a ratio of the predicted hepatic metabolic clearance to hepatic blood flow in that species). In general, compounds with high predictedCLint or ER in vitro are considered to be at high risk for exposure-limiting metabolism in vivo.
In general terms: Liver microsomes are vesicles of endoplasmic reticulum, rich in cytochrome P450 enzymes.

A short description of data set [2]: Liver microsomal clearance assay, mouse. The settings on record: extraction ratio, mouse liver microsomes, 1 μM compound. The data set is classed as in vitro ADME. Here is the method: as §1, §2
Data set [3] is described as follows: In vivo pharmacokinetics assay in mouse. Here is the method:
Full pharmacokinetics study: Male Balb/c mice (n=3, body weights 22-25 g) or male Wistar rats (n=3, body weights 250-300 g) were administered the test compound intravenously via the lateral tail vein or orally via gavage. […] Six blood samples of 50 μL each were collected serially for 24 h after dosing. The blood samples were centrifuged to separate the plasma. Plasma samples were analyzed and quantified by LC-MS/MS.
Rapid pharmacokinetics study: Male Balb/c mice (n=3, body weights 22-25 g) or male Wistar rats (n=3, body weights 250-300 g) were administered the test compound intravenously (IV) via the lateral tail vein or orally (PO) via gavage. […] Six blood samples of 50 μL each were collected serially for 24 h after dosing. Blood samples were centrifuged and plasma separated and pooled across the three animals at each time point per dose route. Plasma samples were analyzed and quantified by LC-MS/MS.
For both full and rapid pharmacokinetics studies, the following parameters were calculated by non-compartmental regression analysis using Winnonlin 5.0 software (Pharsight, Mountain View, Calif., USA): plasma clearance (Cl), plasma maximum concentration (Cmax), plasma area-under-the-concentration-time-curve (AUC0-inf) and percent oral bioavailability (F %).

On to `COC(=O)N[C@@H](C)CNc1nccc(-c2cn(C(C)C)nc2-c2cc(Cl)cc(NS(C)(=O)=O)c2F)n1` [Compound 9, Methyl N-[(2S)-1-({4-[3-(5-chloro-2-fluoro-3-methanesulfonamidophenyl)-1-(propan-2-yl)-1H-pyrazol-4-yl]pyrimidin-2-yl}amino)propan-2-yl]carbamate], for which the “cellular proliferation (Cell Titer Glo, FIG. 1)” value in the data set with SW620 cells is listed as “induction in cellular proliferation”.

One may read the IC50 as the concentration needed to halve the response being measured. As a reminder, the Cmax is the maximum level reached in the sampled fluid or tissue. With “methyl N-[(2S)-1-[(4-{3-[2-fluoro-3-(propane-1-sulfonamido)phenyl]-1-(propan-2-yl)-1H-pyrazol-4-yl}pyrimidin-2-yl)amino]propan-2-yl]carbamate [Compound 3]”, inhibition with A375 cells was half-maximal at 2 nM (IC50). In data set [1], the “ER Human” value is 0.69. In addition, in data set [2], the “ER Mouse” value was determined as 0.85. For the same molecule, in data set [3] (PO 5 mg/kg, n = 1), the maximum concentration (Cmax) came to 70 nM and the “PO AUC” value is recorded as 0.20 (n = 1) hrs*μM. Further, the F in data set [3] (PO/IV 5/2 mg/kg, n = 1) is 6 (n = 1) %. Besides, in data set [3] (plasma clearance, IV 2 mg/kg), the Cl is 51 (n = 1) mL/min/kg.
